From ChEMBL document CHEMBL1132426, “Inhibitors of the C(2)-symmetric HIV-1 protease: nonsymmetric binding of a symmetric cyclic sulfamide with ketoxime groups in the P2/P2' side chains” (J Med Chem, 1999)

Biological target: Human immunodeficiency virus type 1 protease (Human immunodeficiency virus 1, UniProt Q72874)
Assay: Inhibitory activity against HIV-1 Protease expressed in Escherichia coli

Row | SMILES | Ki [nM]
1 | COC(Cc1cccc(CN2[C@H](COc3ccccc3)[C@H](O)[C@@H](O)[C@@H](COc3ccccc3)N(Cc3cccc(CC(OC)OC)c3)S2(=O)=O)c1)OC | 540
2 | C/C(=N/O)c1cccc(CN2[C@H](COc3ccccc3)[C@H](O)[C@@H](O)[C@@H](COc3ccccc3)N(Cc3cccc(/C(C)=N\O)c3)S2(=O)=O)c1 | 3.4
3 | COC(=O)c1ccc(CN2[C@H](COc3ccccc3)[C@H](O)[C@@H](O)[C@@H](COc3ccccc3)N(Cc3ccc(C(=O)OC)cc3)S2(=O)=O)cc1 | 84
4 | O=S1(=O)N(Cc2cccc(CCO)c2)[C@H](COc2ccccc2)[C@H](O)[C@@H](O)[C@@H](COc2ccccc2)N1Cc1cccc(CCO)c1 | 43
5 | O=S1(=O)N(Cc2ccc(CO)cc2)[C@H](COc2ccccc2)[C@H](O)[C@@H](O)[C@@H](COc2ccccc2)N1Cc1ccc(CO)cc1 | 3.1
6 | CC(=O)c1cccc(CN2[C@H](COc3ccccc3)[C@H](O)[C@@H](O)[C@@H](COc3ccccc3)N(Cc3cccc(C(C)=O)c3)S2(=O)=O)c1 | 59
